# Tested on: Mycobacterium terrae (ATCC15755)
# Experiment: Quantitative suspension test Mycobacterium terrae without load, room temperature
# Type: cell-based
# Conditions: 0.1% added to 30% strength ethanol, exposure time 60 minutes
# Experimental: Various aqueous disinfectants were tested with respect to their activity towards Mycobacterium terrae, cell count 1 to 3×10^9 in a quantitative suspension test without load. The following reduction factors were measured, a reduction factor>5 corresponding to a sufficient Tb activity. For this various amounts of ethanol were added to aqueous active compound solutions and after exposure for 15, 30 and 60 minutes were tested. For testing the tuberculocidal activity, the quantitative suspension test Mycobacterium terrae (ATCC15755) was used in accordance with the Deutsche Gesellscaft für Hygiene and Mikrobiologie [German Society for Hygiene and Microbiology] of 30 Apr. 1997 (Hyg. Med. 22, 1997, issue 6, pages 278ff.).
compound,measurement,value
"CCCCC(CC)COCC(O)CO (stereo not shown) [SC 50, 1-(2-ethylhexyl) glycerol ether]",Tb activity (reduction factor>5 = sufficient),sufficiently Tb active

# From US8440725B2, “Synergistic preparations based on mixtures of glycerol ether with aromatic alcohol for controlling mycobacteria” (Air Liquide Sante (International), priority 2002, dated 2013)
